Measurements reported in PMC7531004, “Discovery of gramicidin A analogues with altered activities by multidimensional screening of a one-bead-one-compound library” (Nature Communications, 2020).
Where a SMILES comes first, the peptide text is derived from it. [ ]: non-standard residue; d: D form. The star is where a group is joined. NHCH2CH2OH = OCCN*; For = O=C*

Assays:
[1] = test system: Streptococcus pyogenes SSI-9; assay: Antibacterial activity assay of bead-derived peptides (three concentrations); format: cell-based; parameters: key: +++: inhibition by the 640-fold diluted peptide solution; ++: inhibition by the 160-fold diluted solution; +: inhibition by the 40-fold diluted solution; -: no inhibition; settings: S. pyogenes, bead-derived peptide solution, three concentrations
How it was run: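 Bead-derived library peptide stocks in DMSO were tested undiluted and after 4- and 16-fold DMSO dilution against S. pyogenes SSI-9 (2 × 10^5 CFU/well) in cation-adjusted Mueller Hinton Broth with 5% laked horse blood. After 18 h at 37 °C, wells were scored for precipitation of grown cells.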

[2] = cell viability/%
How it was run: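 First, library peptide stocks are diluted 250-fold in RPMI1640 with 10% heat-inactivated FBS. Next, they are mixed with P388 cells to give 1 × 10^4 cells/mL and incubated 92 h at 37 °C, 5% CO2. Finally, viability (%) is scored by WST-1 absorbance at 415 nm.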

[3] = H+/Na+ transport assay of bead-derived peptides (one-point); format: biochemical; parameters: key: relative activity; mean of two control wells = 1.00; settings: bead-derived peptide solution, EYPC/EYPG LUVs;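 note: relative to parent gramicidin A activity set to 1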
How it was run: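 One-point screen: peptide + pyranine-loaded LUVs, 30 min RT with vortexing, 96-well. Read-out is fluorescence intensity scaled as 100 × (Ix – I0)/(Imax – I0). Imax from Triton X-100, I0 from untreated vesicles, and the mean of the two control wells is set to 1.00.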

## CC(C)C[C@@H](NC(=O)[C@H](C)NC(=O)CNC(=O)[C@@H](NC=O)C(C)C)C(=O)N[C@@H](C)C(=O)N[C@@H](C(=O)N[C@H](C(=O)N[C@@H](C(=O)N[C@@H](Cc1c[nH]c2ccccc12)C(=O)N[C@@H](C(=O)N[C@@H](Cc1c[nH]c2ccccc12)C(=O)N[C@H](CC(C)C)C(=O)N[C@@H](Cc1c[nH]c2ccccc12)C(=O)N[C@@H](C(=O)N[C@@H](Cc1c[nH]c2ccccc12)C(=O)NCCO)C(C)C)[C@H](C)O)C(C)C)C(C)C)C(C)C [compound 5657] (For-VGA[dL]A[dV]V[dV]W[dT]W[dL]W[dV]W-NHCH2CH2OH)
[1]
  antibacterial activity: -
[2]
  viability: 81.3%
[3]
  H+/Na+ transport activity normalized against the value of 1 (1.00): 1.09

## CC(C)C[C@@H](NC(=O)[C@H](C)NC(=O)CNC(=O)[C@@H](NC=O)C(C)C)C(=O)N[C@@H](C)C(=O)N[C@@H](C(=O)N[C@H](C(=O)N[C@@H](C(=O)N[C@@H](Cc1c[nH]c2ccccc12)C(=O)N[C@@H](C(=O)N[C@@H](Cc1c[nH]c2ccccc12)C(=O)N[C@H](CC(C)C)C(=O)N[C@@H](Cc1c[nH]c2ccccc12)C(=O)N[C@@H](C(=O)N[C@@H](Cc1c[nH]c2ccccc12)C(=O)NCCO)C(C)C)C(C)C)[C@H](C)O)C(C)C)C(C)C [compound 2154] (For-VGA[dL]A[dV]V[dT]W[dV]W[dL]W[dV]W-NHCH2CH2OH)
[1]
  antibacterial activity: -
[2]
  viability: 100%
[3]
  H+/Na+ transport activity normalized against the value of 1 (1.00): 1.09

## CC(C)C[C@@H](NC(=O)[C@H](C)NC(=O)CNC(=O)[C@@H](NC=O)C(C)C)C(=O)N[C@@H](C)C(=O)N[C@H](CC(C)C)C(=O)N[C@H](C(=O)N[C@H](CC(C)C)C(=O)N[C@@H](Cc1c[nH]c2ccccc12)C(=O)N[C@H](CC(C)C)C(=O)N[C@@H](Cc1c[nH]c2ccccc12)C(=O)N[C@@H](C(=O)N[C@@H](Cc1c[nH]c2ccccc12)C(=O)N[C@@H](C(=O)N[C@@H](Cc1c[nH]c2ccccc12)C(=O)NCCO)C(C)C)[C@H](C)O)C(C)C [compound 2346] (For-VGA[dL]A[dL]V[dL]W[dL]W[dT]W[dV]W-NHCH2CH2OH)
[1]
  antibacterial activity: +
[2]
  viability: 100%
[3]
  H+/Na+ transport activity normalized against the value of 1 (1.00): 1.03

## CC(C)C[C@@H](NC(=O)[C@H](C)NC(=O)CNC(=O)[C@@H](NC=O)C(C)C)C(=O)N[C@@H](C)C(=O)N[C@H](CC(C)C)C(=O)N[C@H](C(=O)N[C@H](CC(C)C)C(=O)N[C@@H](Cc1c[nH]c2ccccc12)C(=O)N[C@@H](C(=O)N[C@@H](Cc1c[nH]c2ccccc12)C(=O)N[C@@H](C(=O)N[C@@H](Cc1c[nH]c2ccccc12)C(=O)N[C@H](CC(C)C)C(=O)N[C@@H](Cc1c[nH]c2ccccc12)C(=O)NCCO)[C@H](C)O)[C@H](C)O)C(C)C [compound 3244] (For-VGA[dL]A[dL]V[dL]W[dT]W[dT]W[dL]W-NHCH2CH2OH)
[1]
  antibacterial activity: -
[2]
  viability: 100%
[3]
  H+/Na+ transport activity normalized against the value of 1 (1.00): 1.03

## CC(C)C[C@@H](NC(=O)[C@H](C)NC(=O)CNC(=O)[C@@H](NC=O)C(C)C)C(=O)N[C@@H](C)C(=O)N[C@@H](C(=O)N[C@H](C(=O)N[C@H](CC(C)C)C(=O)N[C@@H](Cc1c[nH]c2ccccc12)C(=O)N[C@H](CC(C)C)C(=O)N[C@@H](Cc1c[nH]c2ccccc12)C(=O)N[C@H](CC(C)C)C(=O)N[C@@H](Cc1c[nH]c2ccccc12)C(=O)N[C@H](CC(C)C)C(=O)N[C@@H](Cc1c[nH]c2ccccc12)C(=O)NCCO)C(C)C)C(C)C [compound 8397] (For-VGA[dL]A[dV]V[dL]W[dL]W[dL]W[dL]W-NHCH2CH2OH)
[1]
  antibacterial activity: +
[2]
  viability: 0%
[3]
  H+/Na+ transport activity normalized against the value of 1 (1.00): 1.12
